Assay results taken from PubChem BioAssay AID1902 (Broad Institute, 2009).
The source made the active and inactive calls.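 The calls were made as follows: active = EC50 no more than a set limit of log units above the highest dose; inactive = the rest.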

Target: S. pyogenes SKKanGAS, kanamycin survival, BacTiterGlo, 6 h
Assay: SKKanGAS survival reduction under kanamycin, dose response, streptokinase promoter inhibitor project, SKKanGAS strain, luminescence, dose confirmation (AID 1902);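 also: lower survival reflects blocked streptokinase promoter driving kanamycin resistance gene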

Compound	EC50
C[C@H]1COc2c(N3CCN(C)CC3)c(F)cc3c(=O)c(C(=O)O)cn1c23	1.55 µM
O=C(Nc1nnc(C2CC2)s1)c1cc(-c2ccccc2)nn1-c1ccccc1	6.47 µM
CO[C@H]1C=CO[C@@]2(C)Oc3c(C)c(O)c4c(O)c(c5c(c4c3C2=O)NC2(CCN(CC(C)C)CC2)N=5)=NC(=O)C(C)=CC=C[C@H](C)[C@H](O)[C@@H](C)[C@@H](O)[C@@H](C)[C@H](OC(C)=O)[C@@H]1C	< 0.06 µM
CN1CCN(NC(=O)Nc2cc(Cl)cc(Cl)c2)CC1	3.72 µM
Oc1ccc2ccccc2c1/C=N/Nc1nnc(-c2ncc[nH]2)c2ccccc12	1.55 µM
CC(C)C[C@H](NC(=O)c1[nH]cnc1C(=O)N[C@H](C)c1ccccc1)C(=O)OC(C)(C)C	6.02 µM
CCOC(=O)C1=C(N)Oc2ccc3ccccc3c2C1c1ccc(O)cc1 (centres undefined)	5.68 µM
O=C(/C=C/c1cccc([N+](=O)[O-])c1)c1ccc([N+](=O)[O-])o1	2.88 µM
CN(C)CCCNc1cc(C(C)(C)C)nc2c(-c3ccc(Cl)cc3)cnn12	1.94 µM
O=C(O)c1ccc(N/N=C/c2ccc(OC(=O)c3cccc(Cl)c3)cc2)cc1	1.4 µM
Cc1cc(C)c2nc(NNC(=O)c3ccc(S(=O)(=O)N4CC(C)CC(C)C4)cc3)sc2c1 (centres undefined)	0.815 µM
O=C(CCc1ccccc1)NNC(=S)NC(=O)c1ccccc1	1.81 µM
Cc1ccc(-c2cc(-c3ccccc3Cl)[nH]n2)c(O)c1	2.19 µM
CCOC(=O)Cc1c(C)nc2c(-c3cccc(Br)c3)c[nH]n2c1=O	3.53 µM
CCCCc1nc(N2CCN(C(=O)c3ccco3)CC2)c(C#N)c2c1CCCC2	6.45 µM
CC(/C=C1\SC(=S)N(CCCC(=O)Nc2ccc(C(=O)O)cc2)C1=O)=C\c1ccccc1	0.19 µM
O=c1c2ccccc2c(-c2ccccc2)nn1Cc1c(Cl)cccc1Cl	6.08 µM
CCOc1ccc(-n2c(O)c(/C=N/NC(=O)C3COc4ccccc4O3)c3ccccc3c2=O)cc1 (centres undefined)	2.34 µM
Cc1ccc(C(=O)N/N=C/c2cc(Br)ccc2O)cn1	2.48 µM
Cc1ccc(NC(=S)c2nc3ccccc3[nH]2)cc1	1.08 µM
CC1(C)Cc2nc3sc4c(OCc5ccccc5)ncnc4c3cc2CO1	4.19 µM
CC(C)c1ccc(N2C(=O)/C(=C/N(C)C)SC2=S)cc1	4.7 µM
O=C1CCSc2ccc(Cl)cc2N1Cc1ccc(Cl)cc1	3.93 µM
O=[N+]([O-])c1ccc(O)c(Nc2ncnc3ccc(Br)cc23)c1	3.32 µM
Cc1cccc(NC(=S)/N=C(\N)Nc2nc(C)c3ccc(C)cc3n2)c1	> 15 µM (inactive)

Compound	EC50
Nc1nonc1-n1nnc(C(=O)N/N=C/c2cc(Cl)ccc2O)c1CN1CCCCCC1	5.76 µM
CC(C)C[C@H](NC(=O)c1nc[nH]c1C(=O)N[C@@H](CC(C)C)C(=O)OC(C)(C)C)C(=O)OCc1ccccc1	1.45 µM
CCC(Oc1ccccc1)C(=O)Nc1ccccc1N1CCCCC1 (centres undefined)	3.3 µM
O=C(Nc1ccc(Cl)c(Cl)c1)C1CC(=O)N(c2ccc(Br)cc2)C1 (centres undefined)	4.5 µM
O=C1C=CC(=O)N1CCNc1ncc(C(F)(F)F)cc1Cl	10.4 µM
O=C(NNc1ccccc1Cl)C(O)(c1cccc(C(F)(F)F)c1)c1cccc(C(F)(F)F)c1	2.61 µM
O=C(N/N=C/c1c(O)n(Cc2ccccc2)c(=O)[nH]c1=O)c1ccccc1	8.62 µM
COc1ccc2cc(C(=O)NCc3ccccc3)c(=Nc3ccc(C(=O)O)cc3)oc2c1	3.83 µM
S=C(Nc1ccc(Cl)cc1)c1nc2ccccc2[nH]1	0.183 µM
O=C(O)CCSc1ccc([N+](=O)[O-])cc1[N+](=O)[O-]	> 15 µM (inactive)
COc1cc(OC)cc(C(=O)NC(=S)N2CCN(c3ccc(C(F)(F)F)cc3[N+](=O)[O-])CC2)c1	1.28 µM
Cc1ccc2sc(NNC(=O)c3cc(=O)c4ccccc4o3)nc2c1C	1.18 µM
CCOC(=O)c1sc(NC(=O)c2cc(-c3ccccc3C)nc3ccccc23)c(C#N)c1C	1.36 µM
COc1ccc2nc(-n3c(C)ccc3C)sc2c1	> 15 µM (inactive)
CC(C)CN(Cc1cc(=O)oc2cc3c(cc12)CCCC3)CC(C)C	7.82 µM
O=C(NC(=S)N1CCN(c2ccc(Cl)cc2[N+](=O)[O-])CC1)c1cccs1	2.75 µM
CC(C)(C)c1cc(C(=O)Nc2ccc(F)cc2)n(Cc2ccc(F)cc2)n1	3.77 µM
CSc1cccc(NC(=O)OC2CCCCCCCCCCC2)c1	4.1 µM
COC(=O)c1ccc(CSc2n[nH]c(=S)s2)o1	3.25 µM
CCS(=O)(=O)Nc1ccc(-c2cc(-c3ccccc3)c3cc(C)ccc3n2)cc1	4.03 µM
O=C(Oc1c(Cl)cc(Cl)c2cccnc12)c1cccs1	1.08 µM
COc1ccc(NC(=O)CSc2nc3nc(-c4cccs4)cc(C(F)(F)F)c3c(=O)[nH]2)c(OC)c1	7.42 µM
Cc1cccc2sc(NNC(=O)c3cc(-c4cccs4)nc4ccccc34)nc12	1.05 µM
C[C@@H]1CC[C@@]2(OC1)O[C@H]1C[C@H]3[C@@H]4CC=C5C[C@@H](O)[C@H](O)C[C@]5(C)C4CC[C@]3(C)[C@H]1[C@@H]2C (some centres undefined)	4.12 µM
Nc1nc(-c2ccccc2)c(N=Nc2cccc3ccccc23)s1	4 µM

Compound	EC50
CC(C)C1Nc2c(O)cc(Cl)c([N+](=O)[O-])c2C2C=CCC21 (centres undefined)	3.1 µM
COc1ccc(-c2nc(NC(C)=O)sc2-c2ccc(OC)cc2)cc1	4.05 µM
CCc1ccc(NC(=O)c2ccc(F)c(S(=O)(=O)NCC3COc4ccccc4O3)c2)cc1 (centres undefined)	5.34 µM
Cc1ccc(CNC(=O)c2ccc([N+](=O)[O-])o2)cc1	4.67 µM
O=C(Nc1nnc(C2COc3ccccc3O2)o1)c1ccc(F)cc1 (centres undefined)	1.47 µM
CCOc1ccc2c(c1)c1nnc(SCC(=O)N3CCC(C)CC3)nc1n2C	15.6 µM
CC(C)C[C@H](NC(=O)c1[nH]cnc1C(=O)N[C@@H](C)c1ccccc1)C(=O)OCc1ccccc1	1.16 µM
Cc1nc(N/N=C\c2ccc3c(c2)OCO3)sc1C	4.63 µM
COc1ccc(NC(=O)CN(C)C(=O)/C=C/c2cn(-c3ccccc3)nc2-c2ccc(F)cc2)cc1	8.39 µM
O=C(NCc1ccc(C(F)(F)F)cc1)c1ccc2c(c1)S(=O)(=O)c1ccccc1C2=O	> 15 µM (inactive)
CC(=O)Nc1ccc(S(=O)(=O)N2CCN=C2SCc2ccc(C)cc2)cc1	> 15 µM (inactive)
COc1ccccc1-n1cnc2c(c1=O)c1nc3ccccc3nc1n2-c1ccc(C)c(C)c1	9.11 µM
O=C(Nc1nnc(C2CCCCC2)s1)c1ccc(Br)s1	3.99 µM
CC(C)(C)c1ccc(-c2noc(-c3ccc4c(c3)CCO4)n2)cc1	7.95 µM
COc1ccc(C(=O)c2c(C(F)(F)F)oc3c2C(=O)c2ccccc2C3=O)cc1	1.99 µM
CC(C)c1ccc(C(=O)NC(=S)Nc2ccc3[nH]c(=O)[nH]c3c2)cc1	6.26 µM
CN1CC(c2ccc(Cl)c(Cl)c2)[C@@]2(COc3ccccc3C2=O)[C@@]12C(=O)Nc1ccccc12 (some centres undefined)	1.43 µM
CCCN(CCC)S(=O)(=O)c1ccc(C(=O)Nc2nnc(COC)o2)cc1	5 µM
c1ccc(-c2csc3ncnc(N4CCc5ccccc5C4)c23)cc1	7.04 µM
O=[N+]([O-])/C=C/c1ccc2c(ccn2Cc2ccccc2)c1	3.04 µM
N#C/C(=N\Nc1ccc(Cl)cc1)C(N)=S	> 15 µM (inactive)
CCOC(=O)c1cccc(NC(=S)N2CCN(c3ncc4c(=O)c(C(=O)O)cn(CC)c4n3)CC2)c1	6.28 µM
O=C(CCc1ccccc1)Nc1nnc(-c2ccc3c(c2)CCCC3)o1	1.59 µM
COc1cccc(/C=N/Nc2nc(Nc3ccc([N+](=O)[O-])cc3)nc(N3CCCC3)n2)c1O	1.18 µM
